Measured values from patent publication US20050209336A1, “EP2 receptor agonists” (priority 2003, published 2005).
Like-named read-outs stand apart in the source and are kept apart here.

How the values were obtained:
[1] = system: TNFα production by LPS-stimulated monocytes; assay: Monocyte assay: LPS-induced TNFα secretion; type: cell-based; settings: Homo sapiens, inhibition of TNFα production, LPS 100 ng/ml, 24 h, mean of three donors
Description: Monocytes are peripheral mononuclear phagocytes that participate in inflammatory responses. TNFα production by monocytes plays an important role in inflammatory responses and can cause considerable tissue damage if the level remained unchecked. Inhibition of TNFα secretion by activated monocytes may provide an attractive therapy for the treatment of inflammatory conditions.
A 96 well in vitro assay was established to determine the effects of test compounds on LPS-induced TNFα secretion by human peripheral blood monocytes. The level of TNFα in assay supernatants was quantified using a standard sandwich ELISA.
Human peripheral blood mononuclear cells from healthy volunteers were isolated from whole blood by Ficoll-Hypaque density centrifugation and adherence to plastic. The non-adherent lymphocyte fraction was used to set up the lymphocyte assay and the adherent monocytes were then recovered by scraping and subsequently used in the monocyte assay.
For the monocyte assay, the cells were plated onto 96-well plates and pre-treated for 1 hour at 37° C./5% CO2 with the test compound (Peak 1, mixture 1 acid; Peak 1, mixture 2 acid; AH-13205 racemate), followed by the addition of LPS (100 ng/ml) to initiate the reaction. The plate was incubated for 24 hours and supernatants were recovered for the measurement of TNFα production by ELISA.

human EP2 receptor [2] = biological target: T1, human EP2 receptor (Homo sapiens, UniProt P43116); assay: cAMP production in HEK cells stably expressing the human EP2 receptor; type: cell-based; settings: 15 min stimulation, 4 experiments
T1 construct: expressed in transfected cells; host or cells: HEK cells (HEK-EP2)
Protocol: The following describes an in vitro assay to determine the effect of compounds on cyclase production, that is, to determine their functional efficacy at the EP2 receptor.
HEK cells stably expressing the human EP2 receptor were used for these assays. HEK-EP2 cells were cultured in 96-well, poly-L-lysine coated plates at a density of 50,000 cells/well, and grown to confluence in humidified […] at 37° C. Culture medium was DMEM supplemented with 10% foetal bovine serum, 100 U/ml penicillin, […], 2.5 µg/ml fungizone, 2 mM glutamine, 250 µg/ml geneticin and 200 µg/ml zeocin.
On reaching confluence, culture media was rinsed off using DMEM with no additions, before 175 µl assay buffer (DMEM containing 1 mM 3-isobutyl-1-methylxanthine and 3 µM indomethacin) was added to each well. This was allowed to incubate for 1 hr before the cells were stimulated with the test compounds (in triplicate) at final concentrations of 10^−9M to 10^−5M for 15 minutes. The assay was terminated by the addition of 25 µl 1M hydrochloric acid. Plates were then frozen for a minimum of 12 hours or until required for radioligand displacement assay.
Plates were thawed quickly at 37° C., and neutralised with 25 µl 1M sodium hydroxide. 30 µl of supernatant was transferred to 96-well Millipore (MAFNOB) plates coated with 0.1% Polyethylenimine. These supernatants were diluted by addition of 90[…]1 cAMP assay buffer (50 mM Tris, 5 mM EDTA, pH 7.0). A cAMP standard curve (10^−11M to 10^−5M) was constructed. 15 µl of 3′:5′-cAMP-dependent protein kinase (final concentration 8 µg/well), and 15 µl [^3H]-cAMP (final concentration 2 nM/well) were added to each well.
Plates were incubated on ice for 2 hours, before bound and free radiolabel were separated by vacuum filtration harvesting on the Millipore manifold, using ice cold water as the termination buffer. Filter plates were allowed to dry overnight, before addition of 50 µl Microscint. Radioactivity was determined using the Microbeta Trilux scintillation counter. cAMP accumulation was determined from the standard curve, and the values plotted as pmoles cAMP/well.

human EP2 receptor [3] = biological target: T1, human EP2 receptor; assay: Radioligand ([3H]PGE2) competition displacement binding, human EP2 receptor membranes; settings: for Ki: human EP2 membranes, [3H]PGE2 displacement, Cheng-Prusoff, mean of 4 experiments, read-out: pKi EP2 (converted)
Protocol: (§1) Membranes were prepared from cells stably transfected with human EP receptor cDNA. In brief, cells were cultured to confluency, scraped from culture flasks, and centrifuged (800 g, 8 minutes, 4° C.). Cells were twice washed in ice cold homogenisation buffer containing 10 mMTris-HCl, 1 mM EDTA.2Na, 250 mM sucrose, 1 mM PMSF, 0.3 mM indomethacin, pH 7.4, homogenised and re-centrifuged as before. The supernatant was stored on ice and pellets re-homogenised and re-spun. Supernatants were pooled and centrifuged at 40000 g, 10 minutes, 4° C. Resultant membrane pellets were stored at −80° C. until use.
(§2) For assay, membranes expressing human EP4, EP3, EP2 or EP1 receptors were incubated in Millipore (MHVBN45) plates containing assay buffer, radiolabelled [^3H]PGE2 and 0.1 to 10 000 nM concentrations of compounds. Incubations were performed at suitable temperatures and for suitable times to allow equilibrium to be reached. Non-specific binding was determined in the presence of 10 uM PGE2. Bound and free radiolabel was separated by vacuum manifold filtration using appropriate wash buffers, and bound radiolabel was determined by scintillation counting. Constituents of each of the buffers are included in table 4 below.
(§3) The affinity or pKi of each compound for each receptor was calculated from the concentration causing 50% radioligand displacement (IC50) using the Cheng-Prusoff equation: [formula]
(§4) This approach follows that set out in Kenakin, T. P., Pharmacologic analysis of drug receptor interaction. Raven Press, New York, 2nd edition.

human EP4 receptor = biological target: T2, human EP4 receptor (Homo sapiens, UniProt P35408); assay: Radioligand ([3H]PGE2) competition displacement binding, human EP4 receptor membranes; settings: [3H]PGE2 displacement, read-out: pKi EP4 (converted)
T2 construct: expressed in transfected cells
Protocol: as §1, §2, §3, §4

[4] = log scale, read-out: Mean Log (EC50) (converted)

T2 sequence (P35408 whole entry): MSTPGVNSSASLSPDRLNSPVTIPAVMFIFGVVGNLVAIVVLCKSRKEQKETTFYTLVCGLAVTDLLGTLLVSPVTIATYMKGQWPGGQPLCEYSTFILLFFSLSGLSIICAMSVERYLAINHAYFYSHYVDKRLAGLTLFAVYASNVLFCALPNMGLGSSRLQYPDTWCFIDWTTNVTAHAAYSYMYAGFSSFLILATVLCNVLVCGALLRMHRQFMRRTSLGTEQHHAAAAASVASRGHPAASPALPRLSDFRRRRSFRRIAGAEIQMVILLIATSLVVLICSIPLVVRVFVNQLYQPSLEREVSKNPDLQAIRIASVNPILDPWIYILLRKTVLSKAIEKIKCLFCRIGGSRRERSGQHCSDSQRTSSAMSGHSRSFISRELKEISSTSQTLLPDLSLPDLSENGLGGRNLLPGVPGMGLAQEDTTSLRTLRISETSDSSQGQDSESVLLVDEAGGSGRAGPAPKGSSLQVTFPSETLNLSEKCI
T1 sequence (P43116 whole entry): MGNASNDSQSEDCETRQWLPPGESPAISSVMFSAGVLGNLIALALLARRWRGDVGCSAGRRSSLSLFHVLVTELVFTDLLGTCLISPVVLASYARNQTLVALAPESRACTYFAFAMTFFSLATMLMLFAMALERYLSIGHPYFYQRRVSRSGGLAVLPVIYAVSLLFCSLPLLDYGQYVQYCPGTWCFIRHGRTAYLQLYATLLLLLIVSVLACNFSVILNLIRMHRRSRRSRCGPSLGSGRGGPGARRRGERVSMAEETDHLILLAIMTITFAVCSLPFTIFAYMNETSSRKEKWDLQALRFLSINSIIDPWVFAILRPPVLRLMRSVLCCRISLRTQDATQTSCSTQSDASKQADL

Compound | EC50 ([1]; read-out: Mean EC50) | EC50 [1, 4] | EC50 (human EP2 receptor [2]; read-out: Mean EC50) | EC50 (human EP2 receptor [2]; [4]) | Ki (human EP2 receptor [3]) | Ki (human EP4 receptor) | selectivity for EP2 over other EP receptors (from table 5) (human EP2 receptor [3]; comparison among the stereoisomers)
CCCCC[C@H](O)c1ccc([C@H]2CCC(=O)[C@@H]2CCCCCCC(=O)O)cc1 (single isomer, unassigned) [Peak 1, Mixture 1 acid] | 1780 nM | 1780 nM | 10 nM | 9.77 nM | 79.4 nM | 10000 nM | –
CCCCCC(O)c1ccc(C2CCC(=O)C2CCCCCCC(=O)O)cc1 (racemic) [AH13205, (±)-trans-2-[4-(1-hydroxyhexyl)phenyl]-5-oxo-cyclopentaneheptanoic acid, reference compound] | 19800 nM | 19800 nM | – | 32.4 nM | 398 nM | 25100 nM | –
CCCCC[C@@H](O)c1ccc([C@H]2CCC(=O)[C@@H]2CCCCCCC(=O)O)cc1 (single isomer, unassigned) [Peak 1, Mixture 2 acid] | 6730 nM | 6730 nM | 56 nM | – | 126 nM | 7940 nM | most selective
